Measurements from patent US20230127326A1, “C3-SUBSTITUTED 1H-PYRAZOLO[4,3-d]PYRIMIDINE COMPOUNDS AS TOLL-LIKE RECEPTOR 7 (TLR7) AGONISTS” (BRISTOL-MYERS SQUIBB COMPANY, priority 2020, published 2023).

Experiments:
human TLR7 = biological target: T1, human TLR7 (Homo sapiens, UniProt Q9NYK1); assay: Human TLR7 agonist activity reporter assay (HEK-Blue TLR7 cells, SEAP reporter); format: cell-based; conditions: 18 h treatment, average where assay was performed multiple times, read-out: hTLR7 Agonism EC50
T1 construct: host or cells: HEK-Blue TLR7 cells (engineered human embryonic kidney cells)
T1 sequence (Q9NYK1 27-1049): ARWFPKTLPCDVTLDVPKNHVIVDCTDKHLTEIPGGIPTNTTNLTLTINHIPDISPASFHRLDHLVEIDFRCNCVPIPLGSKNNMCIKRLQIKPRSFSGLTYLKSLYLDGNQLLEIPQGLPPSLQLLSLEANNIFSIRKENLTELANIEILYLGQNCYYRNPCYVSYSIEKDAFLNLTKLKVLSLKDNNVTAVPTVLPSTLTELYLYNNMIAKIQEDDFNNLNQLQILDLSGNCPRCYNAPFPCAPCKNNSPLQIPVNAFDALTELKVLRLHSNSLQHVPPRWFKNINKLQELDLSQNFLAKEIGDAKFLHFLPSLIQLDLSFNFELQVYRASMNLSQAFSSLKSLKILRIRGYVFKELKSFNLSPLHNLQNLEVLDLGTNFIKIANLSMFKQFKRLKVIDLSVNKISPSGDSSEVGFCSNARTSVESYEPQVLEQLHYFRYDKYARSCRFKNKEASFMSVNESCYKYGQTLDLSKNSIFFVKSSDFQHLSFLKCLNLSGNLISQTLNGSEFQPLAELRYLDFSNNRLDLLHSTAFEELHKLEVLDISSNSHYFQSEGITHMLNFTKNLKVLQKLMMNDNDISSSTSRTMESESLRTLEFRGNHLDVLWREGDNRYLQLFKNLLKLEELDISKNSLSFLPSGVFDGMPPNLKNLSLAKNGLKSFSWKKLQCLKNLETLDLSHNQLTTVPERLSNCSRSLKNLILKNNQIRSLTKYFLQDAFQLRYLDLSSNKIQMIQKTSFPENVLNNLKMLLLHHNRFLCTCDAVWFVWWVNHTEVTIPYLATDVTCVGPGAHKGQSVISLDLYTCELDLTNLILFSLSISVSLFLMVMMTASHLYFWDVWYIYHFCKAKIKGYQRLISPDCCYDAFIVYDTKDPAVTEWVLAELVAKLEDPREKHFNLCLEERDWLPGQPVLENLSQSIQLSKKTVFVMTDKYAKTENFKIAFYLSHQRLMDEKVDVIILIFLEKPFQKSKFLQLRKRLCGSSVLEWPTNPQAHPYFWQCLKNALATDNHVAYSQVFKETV
Method: This procedure describes a method for assaying human TLR7 (hTLR7) agonist activity of the compounds disclosed in this specification.
HEK-Blue™ TLR7 cells were added to each well of a 384-well tissue-culture plate (15,000 cells per well) and incubated 16-18 h at 37° C., 5% CO2. Compounds (100 nl) were dispensed into wells containing the HEK-Blue™ TLR cells and the treated cells were incubated at 37° C., 5% CO2. After 18 h treatment ten microliters of freshly-prepared Quanti-Blue™ reagent (Invivogen) was added to each well, incubated for 30 min (37° C., 5% CO2) and SEAP levels measured using an Envision plate reader (OD=620 nm). The half maximal effective concentration values (EC50; compound concentration which induced a response halfway between the assay baseline and maximum) were calculated.

CD69 = assay: Induction of CD69 in human whole blood; format: cell-based; conditions: 17 hrs at 37° C., y-axis 100% set to 1 uM of resiquimod, average where assay was performed multiple times, read-out: hWB CD69 EC50
Method: The induction of Type I interferon (IFN) MX-1 genes and the B-cell activation marker CD69 are downstream events that occur upon activation of the TLR7 pathway. The following is a human whole blood assay that measures their induction in response to a TLR7 agonist.
Heparinized human whole blood was harvested from human subjects and treated with test TLR7 agonist compounds at 1 mM. The blood was diluted with RPMI 1640 media and Echo was used to predot 10 nL per well giving a final concentration of 1 uM (10 nL in 10 uL of blood). After mixing on a shaker for 30 sec, the plates were covered and placed in a 37° C. chamber for o/n=17 hrs. Fixing/lysis buffer was prepared (5×->1× in H2O, warm at 37° C.; Cat #BD 558049) and kept the perm buffer (on ice) for later use.
For surface markers staining (CD69): prepared surface Abs: 0.045 ul hCD14-FITC (ThermoFisher Cat #MHCD1401)+0.6 ul hCD19-ef450 (ThermoFisher Cat #48-0198-42)+1.5 ul hCD69-PE (cat #BD555531)+0.855 ul FACS buffer. Added 3 ul/well, spin 1000 rpm for 1 min and mixed on shaker for 30 sec, put on ice for 30 mins. Stop stimulation after 30 minutes with 70 uL of prewarmed 1× fix/lysis buffer and use Feliex mate to resuspend (15 times, change tips for each plate) and incubate at 37 C for 10 minutes.
Centrifuge at 2000 rpm for 5 minutes aspirate with HCS plate washer, mix on shaker for 30 sec and then wash with 70 uL in dPBS and pelleted 2×s (2000 rpm for 5 min) and 50 ul wash in FACS buffer pelleted 1×s (2000 rpm for 5 min). Mix on shaker for 30 sec. For Intracellular markers staining (MX-1): Add 50 ul of BD Perm buffer III and mix on shaker for 30 sec. Incubate on ice for 30 minutes (in the dark). Wash with 50 uL of FACS buffer 2× (spin @2300 rpm×5 min after perm) followed by mixing on shaker for 30 sec. Resuspended in 20 ul of FACS buffer containing MX1 antibody ( )(4812)-Alexa 647: Novus Biologicals #NBP2-43704AF647) 20 ul FACS bf+0.8 ul hIgG+0.04 ul MX-1. Spin 1000 rpm for 1 min, mix on shaker for 30 se and the samples were incubated at RT in the dark for 45 minutes followed by washing 2×FACS buffer (spin @2300 rpm×5 min after perm). Resuspend 20 ul (35 uL total per well) of FACS buffer and cover with foil and place in 4° C. to read the following day. Plates were read on iQuePlus. The results were loaded into toolset and […] curves are generated in curve master. The y-axis 100% is set to 1 uM of resiquimod.

Row | SMILES | EC50 (human TLR7) [nM] | EC50 (CD69) [nM]
1 | CCCCNc1nc(N)nc2c(F)nn(Cc3ccc(CN4CCN(C)CC4)cc3OC)c12 [Compound 109, N7-butyl-3-fluoro-1-({2-methoxy-4-[(4-methyl-piperazin-1-yl)methyl]-phenyl}methyl)-1H-pyrazolo[4,3-d]pyrimidine-5,7-diamine] | 12.1 | 8.4
2 | CCCCNc1nc(N)nc2c(F)nn(Cc3ccc(CN4CCN(CCO)CC4)cc3OC)c12 [Compound 110, 2-{4-[(4-{[5-amino-7-(butylamino)-3-fluoro-1H-pyrazolo[4,3-d]pyrimidin-1-yl]methyl}-3-methoxyphenyl)methyl]-piperazin-1-yl}ethan-1-ol] | 22.9 | 44.9
3 | CCCCNc1nc(N)nc2c(-c3ccncc3)nn(Cc3ccc(CNC4CCOCC4)cc3OC)c12 [Compound 112, N7-butyl-1-[(2-methoxy-4-{[(oxan-4-yl)amino]-methyl}phenyl)methyl]-3-(pyridin-4-yl)-1H-pyrazolo[4,3-d]pyrimidine-5,7-diamine] | 2430 | 1000
4 | CCCCNc1nc(N)nc2c(-c3cccnc3)nn(Cc3ccc(CNC4CCOCC4)cc3OC)c12 [Compound 114, N7-butyl-1-[(2-methoxy-4-{[(oxan-4-yl)amino]methyl}-phenyl)methyl]-3-(pyridin-3-yl)-1H-pyrazolo[4,3-d]pyrimidine-5,7-diamine] | 291 | 42.7
5 | CCCCNc1nc(N)nc2c(-c3cc[nH]n3)nn(Cc3ccc(CNC4CCOCC4)cc3OC)c12 [Compound 116, N7-butyl-1-[(2-methoxy-4-{[(oxan-4-yl)amino]methyl}-phenyl)methyl]-3-(1H-pyrazol-3-yl)-1H-pyrazolo[4,3-d]pyrimidine-5,7-diamine] | 1430 | 709
6 | CCCCNc1nc(N)nc2c(CO)nn(Cc3ccc(CN4CCN(CCO)CC4)cc3OC)c12 [Compound 119, 2-{4-[(4-{[5-amino-7-(butyl-amino)-3-(hydroxymethyl)-1H-pyrazolo[4,3-d]pyrimidin-l-yl]methyl}-3-methoxy-phenyl)methyl]piperazin-1-yl}ethan-1-ol] | 433 | 177
7 | CCCCNc1nc(N)nc2c(CO)nn(Cc3ccc(CN4CC(OC)C4)cc3OC)c12 [Compound 120, [5-amino-7-(butylamino)-1-({2-methoxy-4-[(3-methoxy-azetidin-1-yl)methyl]phenyl}-methyl)-1H-pyrazolo[4,3-d]pyrimidin-3-yl]methanol] | 334 | 199
8 | CCCCNc1nc(N)nc2c(C3=CCOC3)nn(Cc3ccc(CNC4CCOCC4)cc3OC)c12 [Compound 121, N7-butyl-3-(2,5-dihydro-furan-3-yl)-1-[(2-methoxy-4-{[(oxan-4-yl)amino]methyl}-phenyl)methyl]-1H-pyrazolo[4,3-d]pyrimidine-5,7-diamine] | 1560 | 640

Further lines, results first:

Row | EC50 (human TLR7) [nM] | EC50 (CD69) [nM] | SMILES
9 | 72 | 87.2 | CCCCNc1nc(N)nc2c(F)nn(Cc3ccc(CNC4CCOCC4)cc3OC)c12 [Compound 108, N7-butyl-3-fluoro-1-[(2-methoxy-4-{[(oxan-4-yl)amino]methyl}phenyl)-methyl]-1H-pyrazolo[4,3-d]pyrimidine-5,7-diamine]
10 | 1410 | 97 | CCCCNc1nc(N)nc2c(Cl)nn(Cc3ccc(CNC4CCOCC4)cc3OC)c12 [Compound 111, N7-butyl-3-chloro-1-[(2-methoxy-4-{[(oxan-4-yl)amino]methyl}phenyl)-methyl]-1H-pyrazolo[4,3-d]pyrimidine-5,7-diamine]
11 | 40.1 | 8.1 | CCCCNc1nc(N)nc2c(OC)nn(Cc3ccc(CNC4CCOCC4)cc3OC)c12 [Compound 115, N7-butyl-3-methoxy-1-[(2-methoxy-4-{[(oxan-4-yl)amino]methyl}phenyl)-methyl]-1H-pyrazolo[4,3-d]pyrimidine-5,7-diamine]
12 | 594 | 252 | CCCCNc1nc(N)nc2c(CO)nn(Cc3ccc(CNC4CCOCC4)cc3OC)c12 [Compound 118, [5-amino-7-(butylamino)-1-[(2-methoxy-4-{[(oxan-4-yl)amino]methyl}phenyl)-methyl]-1H-pyrazolo[4,3-d]pyrimidin-3-yl]methanol]
